The values below come from BindingDB's records for doi:10.1016/s0960-894x(01)00631-x (Novartis Pharma, 2001).

For this assay, the target named is Substance-P receptor (Bos taurus). Briefly: In vitro binding affinity for Tachykinin receptor 1 of bovine retinal membranes using [3H]Sar9-substance P as radioligand.
With `CN(C(=O)c1cc(C(F)(F)F)cc(C(F)(F)F)c1)[C@@H](/C=C/C(=O)N[C@@H]1CCCCNC1=O)Cc1cc(Br)c(Br)s1` [N-[(E)-(R)-1-(4,5-Dibromo-thiophen-2-ylmethyl)-3-((R)-2-oxo-azepan-3-ylcarbamoyl)-allyl]-N-methyl-3,5-bis-trifluoromethyl-benzamide], the half-inhibitory concentration (IC50) was found to be 20 nM.
With `CN(C(=O)c1cc(C(F)(F)F)cc(C(F)(F)F)c1)[C@@H](/C=C/C(=O)NC1(C(N)=O)CCCCC1)Cc1ccc(Cl)cc1` [N-[(E)-(R)-3-(1-Carbamoyl-cyclohexylcarbamoyl)-1-(4-chloro-benzyl)-allyl]-N-methyl-3,5-bis-trifluoromethyl-benzamide] the figure was 1 nM; with `CN(C(=O)c1cc(C(F)(F)F)cc(C(F)(F)F)c1)[C@@H](/C=C/C(=O)N[C@@H]1CCCCNC1=O)Cc1ccc2ccccc2c1` [N-Methyl-N-[(E)-(R)-1-naphthalen-2-ylmethyl-3-((R)-2-oxo-azepan-3-ylcarbamoyl)-allyl]-3,5-bis-trifluoromethyl-benzamide], 1.1 nM.
`CN(C(=O)c1cc(C(F)(F)F)cc(C(F)(F)F)c1)N(CCC(=O)N[C@@H]1CCCCNC1=O)Cc1ccc2ccccc2c1` [3-[N'-(3,5-Bis-trifluoromethyl-benzoyl)-N'-methyl-N-naphthalen-2-ylmethyl-hydrazino]-N-((R)-2-oxo-azepan-3-yl)-propionamide] showed a half-maximal inhibitory concentration (IC50) of 6.4 nM.
`CN(C(=O)c1cc(C(F)(F)F)cc(C(F)(F)F)c1)[C@@H](/C=C/C(=O)N[C@@H]1CCCCNC1=O)Cc1cn(C)c2ccccc12` [N-Methyl-N-[(E)-(R)-1-(1-methyl-1H-indol-3-ylmethyl)-3-((R)-2-oxo-azepan-3-ylcarbamoyl)-allyl]-3,5-bis-trifluoromethyl-benzamide] gave an IC50 of 0.5 nM.
In turn, `CN(C(=O)c1cc(C(F)(F)F)cc(C(F)(F)F)c1)N(CCC(=O)N[C@@H]1CCCCNC1=O)Cc1cc(Br)c(Br)s1` [3-[N'-(3,5-Bis-trifluoromethyl-benzoyl)-N-(4,5-dibromo-thiophen-2-ylmethyl)-N'-methyl-hydrazino]-N-((R)-2-oxo-azepan-3-yl)-propionamide] displayed an IC50 of 18 nM.
With `CN(C(=O)c1cc(C(F)(F)F)cc(C(F)(F)F)c1)[C@@H](/C=C/C(=O)NC1CCCCCC1)Cc1ccc(Cl)cc1` [N-[(E)-(R)-1-(4-Chloro-benzyl)-3-cycloheptylcarbamoyl-allyl]-N-methyl-3,5-bis-trifluoromethyl-benzamide] the figure was 12 nM.
For `CN(C(=O)c1cc(C(F)(F)F)cc(C(F)(F)F)c1)[C@@H](/C=C/C(=O)N[C@@H]1CCCCNC1=O)Cc1ccc(Cl)c(Cl)c1` [N-[(R,R)-(E)-(3,4-dichlorobenzyl)-3-(2-oxoazepan-3-yl)carbamoyl]allyl-N-methyl-3,5-bis(trifluoromethyl)benzamide], the concentration for half-maximal inhibition (IC50) is 4.8 nM.
As for `CN(C(=O)c1cc(C(F)(F)F)cc(C(F)(F)F)c1)N(CCC(=O)N[C@@H]1CCCCNC1=O)Cc1ccc(Cl)c(Cl)c1` [3-[N'-(3,5-Bis-trifluoromethyl-benzoyl)-N-(3,4-dichloro-benzyl)-N'-methyl-hydrazino]-N-((R)-2-oxo-azepan-3-yl)-propionamide], the figure is 1.4 nM.
